Results from ChEMBL document CHEMBL1201862, “PubChem BioAssay data set” (2004).
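Growth conditions: 96-well plates. Treatment: test compound, 48 hours, 5 concentrations. Analysis: linear interpolation between bracketing concentrations; unreached endpoints set to highest concentration. GI50 is the concentration that inhibits growth by half.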 Activity calls are given as the source filed them. Rule as the data show it: active = GI50 up to about 1.1 µM and inactive = higher. Non-standard residues stand in square brackets, D forms with d. Residues, ends and D or L forms follow the SMILES beside them.

Assays:
Assay in all cases: NCI-60 cell line screen, 48 h
[1] = tested on: RPMI-8226
[2] = tested on: SF-539
[3] = tested on: SNB-19
[4] = tested on: HT-29
[5] = tested on: HCC 2998
[6] = tested on: MDA-MB-231
[7] = tested on: DU-145
[8] = tested on: 786-0
[9] = tested on: SK-MEL-28
[10] = tested on: UACC-62
[11] = tested on: TK-10
[12] = tested on: SK-MEL-5
[13] = tested on: OVCAR-4
[14] = tested on: CCRF-CEM
[15] = tested on: Malme-3M
[16] = tested on: NCI-H23
[17] = tested on: HOP-92
[18] = tested on: MCF7
[19] = tested on: HCT-116
[20] = tested on: OVCAR-8

Structure (SMILES) | GI50 [1] | GI50 [2] | GI50 [3] | GI50 [4] | GI50 [5] | GI50 [6] | GI50 [7] | GI50 [8] | GI50 [9] | GI50 [10] | GI50 [11] | GI50 [12] | GI50 [13] | GI50 [14] | GI50 [15] | GI50 [16] | GI50 [17] | GI50 [18] | GI50 [19] | GI50 [20]
COc1ccccc1NC(=O)C(C#N)=C(SC)SC | > 100 µM (inactive) | > 100 µM (inactive) | > 100 µM (inactive) | > 100 µM (inactive) | > 100 µM (inactive) | > 100 µM (inactive) | > 100 µM (inactive) | > 100 µM (inactive) | > 100 µM (inactive) | > 100 µM (inactive) | > 100 µM (inactive) | > 100 µM (inactive) | > 100 µM (inactive) | 89.5 µM (inactive) | > 100 µM (inactive) | > 100 µM (inactive) | 32.3 µM (inactive) | > 100 µM (inactive) | > 100 µM (inactive) | 
COc1ccc(NC(=O)CC(=O)N2N=C(C)C(/N=N/c3ccc(C(=O)O)cc3)C2=O)cc1 (stereo not drawn) | > 10 µM (inactive) | > 100 µM (inactive) | > 100 µM (inactive) | > 100 µM (inactive) | > 100 µM (inactive) | > 100 µM (inactive) | > 100 µM (inactive) | > 100 µM (inactive) | > 100 µM (inactive) | > 100 µM (inactive) | > 100 µM (inactive) | > 100 µM (inactive) | > 100 µM (inactive) | > 100 µM (inactive) | > 100 µM (inactive) | > 100 µM (inactive) | > 100 µM (inactive) | > 100 µM (inactive) | > 100 µM (inactive) | > 100 µM (inactive)
C=C1CC(COc2ccc3c(C)c(Cl)c(=O)oc3c2)(c2ccccc2)OC1=O (stereo not drawn) | 0.442 µM (active) | 3.38 µM (inactive) | 13.8 µM (inactive) | 1.24 µM (inactive) | 1.71 µM (inactive) | 3.78 µM (inactive) | 3.01 µM (inactive) | 1.51 µM (inactive) | 2.11 µM (inactive) | 1.74 µM (inactive) | 1.53 µM (inactive) | 1.74 µM (inactive) | 1.67 µM (inactive) | 0.302 µM (active) | 1.67 µM (inactive) | 1.57 µM (inactive) | 1.47 µM (inactive) | 1.08 µM (active) | 1.01 µM (active) | 2.06 µM (inactive)
CSCC[C@H](NC(=O)[C@@H](N)CC(N)=O)C(=O)N[C@@H](Cc1c[nH]c2ccccc12)C(=O)N[C@@H](CCC(N)=O)C(=O)N[C@@H](CCC(=O)O)C(=O)N[C@H](C(=O)NCC(=O)N[C@@H](CCCCN)C(=O)N[C@H](C)C(=O)O)C(C)C (H-NMWQEVGK[dA]-OH) | > 100 µM (inactive) | > 100 µM (inactive) | > 100 µM (inactive) | > 100 µM (inactive) | > 100 µM (inactive) | > 100 µM (inactive) | > 100 µM (inactive) | > 100 µM (inactive) | > 100 µM (inactive) | > 100 µM (inactive) | > 100 µM (inactive) | > 100 µM (inactive) | > 100 µM (inactive) | > 100 µM (inactive) | > 100 µM (inactive) | > 100 µM (inactive) | > 100 µM (inactive) | > 100 µM (inactive) | > 100 µM (inactive) | > 100 µM (inactive)
Cc1ccccc1Nc1nc2c(s1)C(=O)c1ccccc1C2=O | 2.93 µM (inactive) | 5.73 µM (inactive) | 7.21 µM (inactive) | 19.1 µM (inactive) | 17.7 µM (inactive) | 3.41 µM (inactive) | 6.67 µM (inactive) | 2.95 µM (inactive) | 9.86 µM (inactive) | 4.55 µM (inactive) | 22.7 µM (inactive) | 2.92 µM (inactive) | 2.02 µM (inactive) | 3.34 µM (inactive) | 15 µM (inactive) | 3.43 µM (inactive) | 11.9 µM (inactive) | 2 µM (inactive) | 2.36 µM (inactive) | 2.86 µM (inactive)
O=C(c1ccc(Cl)cc1Cl)N(Cc1cccnc1)C(=S)N(Cc1cccnc1)C(=O)c1ccc(Cl)cc1Cl | 0.678 µM (active) | 2.22 µM (inactive) | 12 µM (inactive) | 2.38 µM (inactive) | 3.4 µM (inactive) | 2.75 µM (inactive) | 3.39 µM (inactive) | 2.12 µM (inactive) | 10.9 µM (inactive) | 10.3 µM (inactive) | 3.77 µM (inactive) | 3.33 µM (inactive) | 2.72 µM (inactive) | 1.86 µM (inactive) | 16.4 µM (inactive) | 12.2 µM (inactive) | 3.83 µM (inactive) | 2.58 µM (inactive) | 2.48 µM (inactive) | 3.35 µM (inactive)
CCCCCCCCCCCCC(O)C1CCC(C(O)CCCCCCC(O)CCCCCCCC2=CC(C)OC2=O)O1 (stereo not drawn) | 7.91 µM (inactive) | > 10 µM (inactive) | 34.4 µM (inactive) |  | 30.9 µM (inactive) | 28.6 µM (inactive) | > 10 µM (inactive) | 32.9 µM (inactive) | 51.9 µM (inactive) | > 10 µM (inactive) | 35.4 µM (inactive) | 1.19 µM (inactive) | 34.4 µM (inactive) | 3.1 µM (inactive) | 25.9 µM (inactive) | 0.0109 µM (active) | 25.8 µM (inactive) | 0.745 µM (active) | 0.127 µM (active) | 36.6 µM (inactive)
CC(C)=CCC[C@@H](C)C1=C(O)C(=O)C(C)=C(Nc2ccccc2Cl)C1=O | 25.9 µM (inactive) | 9.31 µM (inactive) | 30.7 µM (inactive) | 13 µM (inactive) | 20.6 µM (inactive) | 40.4 µM (inactive) | 36.2 µM (inactive) | 12.9 µM (inactive) | 26.5 µM (inactive) | 12.2 µM (inactive) | 33.7 µM (inactive) | 16.8 µM (inactive) | 11.2 µM (inactive) | 4.41 µM (inactive) | 11.3 µM (inactive) | 12.5 µM (inactive) | 27.8 µM (inactive) | 24.4 µM (inactive) | 15 µM (inactive) | 4.71 µM (inactive)
CC(C)=CCNc1ncnc2c1ncn2CCC#N | > 100 µM (inactive) | > 100 µM (inactive) | > 100 µM (inactive) | > 100 µM (inactive) | > 100 µM (inactive) | > 100 µM (inactive) | > 100 µM (inactive) | > 100 µM (inactive) | > 100 µM (inactive) | > 100 µM (inactive) | > 100 µM (inactive) | > 100 µM (inactive) | 45.1 µM (inactive) | > 100 µM (inactive) | > 100 µM (inactive) | > 100 µM (inactive) | > 100 µM (inactive) | > 100 µM (inactive) | > 100 µM (inactive) | > 100 µM (inactive)
Nc1nc(Cl)cc(NCC2(CO)CC(O)C2)n1 (stereo not drawn) | > 100 µM (inactive) | > 100 µM (inactive) | > 100 µM (inactive) | > 100 µM (inactive) | > 100 µM (inactive) | > 100 µM (inactive) | > 100 µM (inactive) | > 100 µM (inactive) | > 100 µM (inactive) | > 100 µM (inactive) | > 100 µM (inactive) | > 100 µM (inactive) | > 100 µM (inactive) | > 100 µM (inactive) | > 100 µM (inactive) | > 100 µM (inactive) | > 100 µM (inactive) | > 100 µM (inactive) | > 100 µM (inactive) | > 100 µM (inactive)
Cc1cc2nc3ccc(N(C)C)cc3[s+]c2cc1N [TOLONIUM CHLORIDE] | 1.48 µM (inactive) | 2.63 µM (inactive) | 2.69 µM (inactive) | 7.93 µM (inactive) | 3.7 µM (inactive) | 2.41 µM (inactive) | 15.7 µM (inactive) | 5.22 µM (inactive) | 13.6 µM (inactive) | 1.89 µM (inactive) | 19.2 µM (inactive) | 0.641 µM (active) | 3.35 µM (inactive) | 1.16 µM (inactive) | 1.93 µM (inactive) | 2.21 µM (inactive) | 13.4 µM (inactive) | 2.3 µM (inactive) | 1.75 µM (inactive) | 2.16 µM (inactive)
O=C1NCC2(CCNCC2)N1c1ccccc1 | > 100 µM (inactive) | > 100 µM (inactive) | > 100 µM (inactive) | > 100 µM (inactive) | > 100 µM (inactive) | > 100 µM (inactive) | > 100 µM (inactive) | > 100 µM (inactive) | > 100 µM (inactive) | > 100 µM (inactive) | > 100 µM (inactive) | > 100 µM (inactive) | > 100 µM (inactive) | > 100 µM (inactive) | > 100 µM (inactive) | > 100 µM (inactive) | > 100 µM (inactive) | > 100 µM (inactive) | > 100 µM (inactive) | > 100 µM (inactive)
COc1ccc2nc(C)cc(NCCCCCCCCCNc3cc(C)nc4ccc(OC)cc34)c2c1 | 1.11 µM (active) | 1.27 µM (inactive) | 2.67 µM (inactive) | 0.55 µM (active) | 1.4 µM (inactive) | 1.27 µM (inactive) | 6.07 µM (inactive) | 1.03 µM (active) | 15 µM (inactive) | 2.83 µM (inactive) | 4.66 µM (inactive) | 1.71 µM (inactive) | 2.19 µM (inactive) | 1.27 µM (inactive) | 9.27 µM (inactive) | 1.73 µM (inactive) | 1.24 µM (inactive) | 1.21 µM (inactive) | 0.279 µM (active) | 0.527 µM (active)
